Test results reported in patent US8877927B2 (Grunenthal GmbH, priority 2006, dated 2014).

Assays:
[1] = Plasma incubations (rat plasma stability); assay type: in vitro ADME; conditions: 25 μM, 37° C., percent remaining at 1 hour
Experimental: (§1) Human and rat plasma were purchased from Innovative Research Inc. (Southfield. Mich., USA). […] Aliquots were removed at 2 and 60 minutes and quenched with an equal volume of cold acetonitrile. After mixing vigorously, the precipitated protein matter was removed by filtration (Multiscreen Solvinert filter plates, Millipore, Bedford, Mass., USA) and the filtrate analysed by reverse phase HPLC with mass spectrometric detection, using single ion monitoring of the [M+H]^+ species. Metabolic turnover was determined by comparison of peak areas from the ion chromatograms of the parent compound at 2 and 60 minutes and expressed as percent remaining at 1 hour.

[2] = Liver microsomal incubations (RLM); assay type: in vitro ADME; conditions: rat liver microsomes 0.5 mg/mL, 25 μM, NADPH, percent remaining at 1 hour
Experimental: (§2) Human and rat liver microsomes were purchased from BD Gentest (Woburn, Mass., USA) and β-nicotinamide adenine dinucleotide 2′-phosphate reduced tetrasodium salt (NADPH) was purchased from Sigma-Aldrich (Poole, Dorset, UK). All liver microsome incubations were carried out in 50 mM potassium phosphate buffer at pH 7.4, with a final microsomal protein concentration of 0.5 mg/mL. […] In brief, compounds were added to the incubation buffer along with the liver microsomes and incubated at 37° C. for 10 minutes. The reaction was then initiated by the addition of NADPH, previously dissolved in incubation buffer, to give a final concentration of 1 mM and re-incubated at 37° C. Aliquots were removed at 2 and 60 minutes and quenched with an equal volume of cold acetonitrile. After mixing vigorously, the precipitated protein matter was removed by filtration (Multiscreen Solvinert filter plates, Millipore, Bedford, Mass., USA) and the filtrate analysed by reverse phase HPLC with mass spectrometric detection, using single ion monitoring of the [M+H]^+ species. Metabolic turnover was determined by comparison of peak areas from the ion chromatograms of the parent compound at 2 and 60 minutes and expressed as percent remaining at 1 hour.

[3] = molecular target: T1, Human recombinant cathepsin K (Homo sapiens, UniProt P43235); assay: In vitro cathepsin K Ki inhibition measurement; assay type: biochemical; conditions: for Ki: recombinant human cathepsin K, read-out: In vitro Ki (nM) vs Cath K
T1 construct: purchased B. Turk, Josef, Stefan Institute, Ljubljana, Slovenia
T1 sequence (P43235 115-329): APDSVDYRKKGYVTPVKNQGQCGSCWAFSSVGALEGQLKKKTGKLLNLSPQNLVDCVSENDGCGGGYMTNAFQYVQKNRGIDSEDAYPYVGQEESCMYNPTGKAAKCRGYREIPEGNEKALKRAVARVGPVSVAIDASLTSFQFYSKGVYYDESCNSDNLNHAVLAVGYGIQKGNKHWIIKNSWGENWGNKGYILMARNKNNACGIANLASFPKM
Experimental: Stock solutions of substrate or inhibitor were made up to 10 mM in 100% dimethylsulfoxide (DMSO) (Rathbums, Glasgow, U.K.) and diluted as appropriately required. In all cases the DMSO concentration in the assays was maintained at less than 1% (vol./vol.). The equilibrium inhibition constants (Ki^ss) for each compound were measured under steady-state conditions monitoring enzyme activity as a function of inhibitor concentration. The values were calculated on the assumption of pure competitive behaviour (Cornish-Bowden, A. Fundamentals of enzyme kinetics Portland Press; 1995, 93-128.). Human recombinant cathepsin K (0.25 nM final; B. Turk, Josef, Stefan Institute, Ljubljana, Slovenia), was routinely assayed in 100 mM sodium acetate; pH 5.5 containing 1 mM EDTA, 10 mM L-cysteine and 1.8 μM Z-Leu-Arg-AMC ([S]═KM).
The apparent inhibition constant (Ki) for each compound was determined on the basis that inhibition was reversible and occurred by a pure-competitive mechanism. The Ki values were calculated, from the dependence of enzyme activity as a function of inhibitor concentration, by direct regression analysis (Prism v 3.02) using Equation 2 (Cornish-Bowden, A., 1995.).
In situations where the apparent dissociation constant (Ki^app) approached the enzyme concentrations, the Ki^app values were calculated using a quadratic solution in the form described by Equation 3 (Morrison, J. F. Trends Biochem. Sci., 7, 102-105, 1982; Morrison, J. F. Biochim. Biophys. Acta, 185, 269-286, 1969; Stone, S. R. and Hofsteenge, J. Biochemistry, 25, 4622-4628, 1986).
In Equation 3 ‘vi’ is the observed residual activity, ‘F’ is the difference between the maximum activity (i.e. in the absence of inhibitor) and minimum enzyme activity, ‘Eo’ is the total enzyme concentration, ‘Ki^app’ is the apparent dissociation constant and ‘Io’ is the inhibitor concentration. Curves were fitted by non-linear regression analysis (Prism) using a fixed value for the enzyme concentration. Equation 4 was used to account for the substrate kinetics, where ‘Ki’ is the inhibition constant, ‘[So]’ is the initial substrate concentration and ‘KM^app’ is the apparent macroscopic binding (Michaelis) constant for the substrate (Morrison, 1982).

[4] = Plasma incubations (human plasma stability); assay type: in vitro ADME; conditions: 25 μM, 37° C., percent remaining at 1 hour
Experimental: as §1

[5] = Rat pharmacokinetics (oral bioavailability, clearance); assay type: in vivo; conditions: for reduction in clearance: compared to prior art compound 42; for clearance / bioavailability: in vivo; for bioavailability: oral, read-out: Rat Oral Bioavailability (% F)
[6] = Liver microsomal incubations (HLM); assay type: in vitro ADME; conditions: human liver microsomes 0.5 mg/mL, 25 μM, NADPH, percent remaining at 1 hour
Experimental: as §2

[7] = compared to prior art compound 42
[8] = compared to prior art compound 11

SMILES | Rat Plasma Stability % rem. @ 1 h [1] | RLM % rem. @ 1 hr [2] | Ki [3] | Human Plasma Stability % rem. @ 1 h [4] | reduction in clearance [5] | clearance [5] | bioavailability [5] | HLM % rem. @ 1 hr [6] | improvement in in vitro potency against recombinant human cathepsin K [3, 7] | further results
CN1CCN(c2ccc(C(=O)N[C@H](C(=O)N3CC(F)[C@H]4OCC(=O)[C@H]43)C3CCCCC3)cc2)CC1 (stereo in doubt) [Example 2, N—((S)-1-cyclohexyl-2-((3aS,6S,6aS)-6-fluoro-3-oxodihydro-2H-furo[3,2-b]pyrrol-4(5H,6H,6aH)-yl)-2-oxoethyl)-4-(4-methylpiperazin-1-yl)benzamide] | 100% | 73.3% | 14.9 nM | 93.1% | 68% | 25 mL/min/kg | 80% | 98.2% |  | 
CN1CCN(c2ccc(C(=O)N[C@H](C(=O)N3CC(Cl)[C@H]4OCC(=O)[C@H]43)C3CCCC3)cc2)CC1 (stereo in doubt) [Example 5, N—((S)-2-((3aS,6S,6aS)-6-chloro-3-oxodihydro-2H-furo[3,2-b]pyrrol-4(5H,6H,6aH)-yl)-1-cyclopentyl-2-oxoethyl)-4-(4-methylpiperazin-1-yl)benzamide] | 96.6% | 81.3% | 0.5 nM | 97.4% |  | 107 mL/min/kg | 37% | 85.6% | 17 fold | increase in in vitro potency against recombinant human cathepsin K ([3]; compared to the direct (S)-leucine analogue (14)): 3.5 fold
CN1CCN(c2ccc(C(=O)N[C@H](C(=O)N3C[C@H](F)[C@H]4OCC(=O)[C@H]43)C3CCCC3)cc2)CC1 [Example 1, N—((S)-1-cyclopentyl-2-((3aS,6S,6aS)-6-fluoro-3-oxodihydro-2H-furo[3,2-b]pyrrol-4(5H,6H,6aH)-yl)-2-oxoethyl)-4-(4-methylpiperazin-1-yl)benzamide] | 95.9% | 82% | 1.7 nM | 96.4% | 71% | 23 mL/min/kg | 88% | 100% | 5 fold | 
CN1CCN(c2nc(-c3ccc(C(=O)N[C@H](C(=O)N4C[C@@H](F)[C@H]5OCC(=O)[C@H]54)C4CCCC4)cc3)cs2)CC1 [Example 7] | 88% | 3.5% | 0.9 nM | 96.3% |  |  |  | 74% |  | 
CN1CCN(c2nc(-c3ccc(C(=O)N[C@H](C(=O)N4C[C@@H](Cl)[C@H]5OCC(=O)[C@H]54)C4CCCC4)cc3)cs2)CC1 [Example 8] | 85.1% | 7.7% | 0.3 nM | 96% |  |  |  | 54.1% |  | 
CC(C)C[C@H](NC(=O)c1ccc(-c2csc(N3CCN(C)CC3)n2)cc1)C(=O)N1C[C@@H](F)[C@H]2OCC(=O)[C@H]21 [prior art compound 8.19] | 90.2% | 4.4% | 1.5 nM | 70.2% |  |  |  | 66.7% |  | improvement in in vitro potency against recombinant human cathepsin K [3, 8]: only minor improvement
CC(C)C[C@H](NC(=O)c1ccc(N2CCN(C)CC2)cc1)C(=O)N1C[C@@H](F)[C@H]2OCC(=O)[C@H]21 [prior art compound 10] | 94.2% | 93.6% | 3.6 nM | 100% | no effect | 81 mL/min/kg | 40% | 96.8% | 2.4 fold | 
CC(C)C[C@H](NC(=O)c1ccc(-c2csc(N3CCN(C)CC3)n2)cc1)C(=O)N1CC[C@H]2OCC(=O)[C@H]21 [prior art compound 11] | 88.6% | 4.8% |  | 92.6% |  |  |  | 82.6% |  | 
CN1CCN(c2ccc(C(=O)N[C@H](C(=O)N3CC[C@H]4OCC(=O)[C@H]43)C3CCCC3)cc2)CC1 [prior art compound 12] | 94.1% | 93.9% | 1.8 nM | 97.2% | 29% | 56 mL/min/kg | 45% | 91.2% | 5 fold | 
CN1CCN(c2nc(-c3ccc(C(=O)N[C@H](C(=O)N4CC[C@H]5OCC(=O)[C@H]54)C4CCCC4)cc3)cs2)CC1 [prior art compound 13] | 93% | 4.3% |  | 82.5% |  |  |  | 79.4% |  | improvement in in vitro potency against recombinant human cathepsin K [3, 8]: only minor improvement
CC(C)C[C@H](NC(=O)c1ccc(N2CCN(C)CC2)cc1)C(=O)N1C[C@@H](Cl)[C@H]2OCC(=O)[C@H]21 [prior art compound 14] |  |  | 1.8 nM |  |  |  |  |  |  | Rat Plasma Stability % rem. @ 1 h ([1]; listed as drawing 58): 92.8%; RLM % rem. @ 1 hr ([2]; listed as drawing 58): 85.5%; Human Plasma Stability % rem. @ 1 h ([4]; listed as drawing 58): 85.5%; HLM % rem. @ 1 hr ([6]; listed as drawing 58): 84.8%
CC(C)C[C@H](NC(=O)c1ccc(N2CCN(C)CC2)cc1)C(=O)N1C[C@@H](Cl)[C@H]2OCC(=O)[C@H]21 [prior art compound 15] |  |  | 3.7 nM |  |  |  |  |  |  | Rat Plasma Stability % rem. @ 1 h ([1]; listed as drawing 59): 88.9%; RLM % rem. @ 1 hr ([2]; listed as drawing 59): 81.6%; Human Plasma Stability % rem. @ 1 h ([4]; listed as drawing 59): 90.3%; HLM % rem. @ 1 hr ([6]; listed as drawing 59): 80.3%
CC(C)C[C@H](NC(=O)c1ccc(N2CCN(C)CC2)cc1)C(=O)N1CC[C@H]2OCC(=O)[C@H]21 [prior art compound 42] | 84.2% | 76.6% |  | 95% |  | 79 mL/min/kg | 31.5% | 95% |  | 
